{"source": "patent US5945508A", "about": "“Substance P treatment for immunostimulation” (priority 1997, dated 1999)", "key": {"immune system organs": {"test_system": "immune system organs", "experiment": "Organ weight and total cell recovery", "type": "in vivo, C57B16 mice", "design": "Spleen Cell Number / Thymus Cell Number / LN Cell Number / BM Cell Number: scale not given here; Spleen Weight / Thymus Weight: unit not given here", "experimental": "(§1) At 24 hours after the last exposure, the animals were sacrificed and the effects of exposure on the immune system examined. Immune organs (spleen, thymus, blood, lymph nodes and bone marrow) were recovered and analyzed for effects on organ weight, total cell numbers, immune cell populations (by differentials), and lymphocyte subpopulations (by flow cytometry). Assays were also performed to examine the effects of exposure on immune function. […] Similar effects on immune cell subpopulations were also observed in lymph nodes. In the thymus it appeared that the immature CD4^+ CD8^+ cells were differentially lost due to exposure. […] However, these effects are prevented or ameliorated by treatment of the animals with Substance P.\nFor each of the immune system organs (spleen, lymph nodes and thymus) the wet weight is determined after removal using a microbalance. After processing of the organs into single cell suspensions the cell numbers and viabilities are determined using trypan blue staining. Histochemical differentials are performed at this time. Cell numbers and viabilities are again determined after centrifugation of the cell suspensions through density gradients to obtain mononuclear cells."}, "Spleen B Cell": {"test_system": "Spleen B Cell", "experiment": "Mitogenesis of spleen B cells, LP-BM5 mouse AIDS model", "type": "in vivo, C57BL6 mice", "experimental": "(§2) C57BL6 mice, average weight of 25-30 grams, were infected with the LP-BM5 murine leukemia retrovirus to simulate the human AIDS virus. […] The mice were divided into two groups; LP-BM5 virus only and LP-BM5 virus+substance P aerosol therapy at 1 μM concentration. The mice were killed at 4 and 8 weeks postinoculation.\n(§3) The proliferation of splenic B and T cells induced by mitogens was determined by incorporation of radioactive thymidine. Splenocytes in 0.1 ml of cell culture medium (1×10 ^7 cells/ml) were cultured in 96-well flat-bottom cultured plates with ConA and lipopolysaccharide, 5 micrograms/ml). The cells were incubated at 37° C., 5% CO2 incubator for 72 hours for ConA-induced T cell proliferation, and then pulsed with ^3 H-thymidine (1 microCurie/well). After 4 hours for radioactive thymidine uptake, the cells were harvested by a cell sample harvester. Radioactivity was determined by a liquid scintillation counter (Tri-Carb, 2200CA). The T and B cell mitogenesis values were recorded as counts per min in 1×10^7 cells/ml."}, "[1]": {"test_system": "murine melanoma B16 cancer cells", "experiment": "B16 melanoma lung tumor colonies after tail vein injection", "type": "in vivo, mice", "settings": "for mean number of tumor colonies observed in both lungs: 1×10^4 B16 cells/mouse, 4 weeks post-injection; for reduction in tumors: versus controls", "description": "The mice were infected with syngeneic murine melanoma B16 cancer cells by tail vein injection. The dose was 1×10^4 B16 tumor cells/mouse. […] The second group of mice was given their substance P aerosol therapy starting one week after the injection of the B16 cells. The aerosol therapy lasted for one week. Both groups of mice and their corresponding controls (injection with B16 cells and no substance P therapy) were killed at 4 weeks post-injection with B16 cells. The data is presented as the mean number of tumor colonies observed in both lungs."}, "interferon-gamma": {"test_system": "interferon-gamma", "experiment": "Spleen cytokine ELISA, LP-BM5 mouse AIDS model", "type": "in vivo, C57BL6 mice", "settings": "SP aerosol 1 μM", "experimental": "as §2\n(§4) Spleen cytokine assays for interleukin-6 and interferon-gamma were conducted by standard mouse ELISA assays. The antibodies for IL-6 and interferon-gamma were purchased from Genzyme, Inc. and Collaborative Research, respectively. Briefly, flat bottom polyvinylchloride 96-well enzyme immunoassay plates were coated with […] monoclonal antibody in 0.05 ml bicarbonate buffer (pH 9.6) to each cytokine. After washing in phosphate-buffered saline containing 0.05% (v/v) Tween-20, plates were incubated in blocking reagent (1% bovine serum albumin in buffer). For the standard curves for each cytokine assay, serial dilutions of recombinant cytokine were added to a set of wells from anti-cytokine coated plates. After two hours at room temperature and three subsequent washings, biotinylated-anti-cytokine will be added to respective wells diluted 1:500 in blocking reagent. All plates were then incubated for an additional two hours at room temperature, washed three times, then […] of 1:5000 avidin-peroxidase was added. After an additional 3 washes, […] of the substrate mixture was added to each well (ABTS plus hydrogen peroxide solution). After an incubation at room temperature for 10-15 minutes, stopping reagent ([…] of a 12 g NaOH in 50 ml water solution) was added. Readings were taken at 405 nm with 490 nm reference using a microELISA spectrophotometric plate reader. Values of interluekin-6 and interferon-gamma were expressed as nanograms/ml."}, "interleukin-6": {"test_system": "interleukin-6", "experiment": "Spleen cytokine ELISA, LP-BM5 mouse AIDS model", "type": "in vivo, C57BL6 mice", "settings": "SP aerosol 1 μM", "experimental": "as §2, §4"}, "Spleen T Cell": {"test_system": "Spleen T Cell", "experiment": "Mitogenesis of spleen T cells, LP-BM5 mouse AIDS model", "type": "in vivo, C57BL6 mice", "experimental": "as §2\nas §3, with “The cells were incubated at 37° C., 5% CO2 incubator for 72 hours for ConA-induced T cell proliferation, and then pulsed with ^3 H-thymidine (1 microCurie/well).” left out"}, "immune system": {"test_system": "immune system", "experiment": "Immunotoxicology of exposure to jet fuel JP-8", "type": "in vivo, C57B16 mice", "settings": "JP-8 exposed animals treated with Substance P", "experimental": "as §1"}, "[2]": {"settings": "JP-8 1000 mg/m^3 + SP, nSP (1 nM), CP or RP"}, "[3]": {"settings": "4 weeks after LP-BM5 infection, SP aerosol 1 μM 3 days/week, 25 Hours in Culture"}, "[4]": {"settings": "4 weeks after LP-BM5 infection, SP aerosol 1 μM 3 days/week, 48 Hours in Culture"}, "[5]": {"settings": "4 weeks after LP-BM5 infection, SP aerosol 1 μM 3 days/week, 72 Hours in Culture"}, "[6]": {"settings": "8 weeks post-infection with LP-BM5, SP aerosol 1 μM, 72 hours in culture"}, "[7]": {"settings": "8 weeks post-infection with LP-BM5"}}}
{"substance": "Substance P [SP]", "values": [{"measurement": "BM Cell Number", "setting": "immune system organs; JP-8 250 mg/m^3 + SP", "result": 23}, {"measurement": "LN Cell Number", "setting": "immune system organs; JP-8 250 mg/m^3 + SP", "result": 10.8}, {"measurement": "Spleen Cell Number", "setting": "immune system organs; JP-8 250 mg/m^3 + SP", "result": 40}, {"measurement": "Spleen Weight", "setting": "immune system organs; JP-8 250 mg/m^3 + SP", "result": 0.16}, {"measurement": "Thymus Cell Number", "setting": "immune system organs; JP-8 250 mg/m^3 + SP", "result": 70}, {"measurement": "Thymus Weight", "setting": "immune system organs; JP-8 250 mg/m^3 + SP", "result": 0.06}, {"measurement": "BM Cell Number", "setting": "immune system organs; [2]", "result": 21}, {"measurement": "LN Cell Number", "setting": "immune system organs; [2]", "result": 5.0}, {"measurement": "Spleen Cell Number", "setting": "immune system organs; [2]", "result": 72}, {"measurement": "Spleen Weight", "setting": "immune system organs; [2]", "result": 0.14}, {"measurement": "Thymus Cell Number", "setting": "immune system organs; [2]", "result": 78}, {"measurement": "Thymus Weight", "setting": "immune system organs; [2]", "result": 0.11}, {"measurement": "BM Cell Number", "setting": "immune system organs; JP-8 2500 mg/m^3 + SP", "result": 19}, {"measurement": "LN Cell Number", "setting": "immune system organs; JP-8 2500 mg/m^3 + SP", "result": 5.0}, {"measurement": "Spleen Cell Number", "setting": "immune system organs; JP-8 2500 mg/m^3 + SP", "result": 87}, {"measurement": "Spleen Weight", "setting": "immune system organs; JP-8 2500 mg/m^3 + SP", "result": 0.10}, {"measurement": "Thymus Cell Number", "setting": "immune system organs; JP-8 2500 mg/m^3 + SP", "result": 96}, {"measurement": "Thymus Weight", "setting": "immune system organs; JP-8 2500 mg/m^3 + SP", "result": 0.08}, {"measurement": "reversal of effects of JP-8 exposure on the immune system", "setting": "immune system organs; Substance P at both 1 uM and 1 nM doses", "result": "significantly reversed"}, {"measurement": "BM Cell Number", "setting": "immune system organs; dose 0 (no JP-8) + SP or CP", "result": 9}, {"measurement": "Spleen Cell Number", "setting": "immune system organs; dose 0 (no JP-8) + SP or CP", "result": 30}, {"measurement": "Spleen Weight", "setting": "immune system organs; dose 0 (no JP-8) + SP or CP", "result": 0.10}, {"measurement": "Thymus Cell Number", "setting": "immune system organs; dose 0 (no JP-8) + SP or CP", "result": 18}, {"measurement": "Thymus Weight", "setting": "immune system organs; dose 0 (no JP-8) + SP or CP", "result": 0.04}, {"measurement": "Spleen B Cell Mitogenesis", "setting": "Spleen B Cell; [3]", "result": "2063 (448) counts per min"}, {"measurement": "Spleen B Cell Mitogenesis", "setting": "Spleen B Cell; [4]", "result": "1369 (231) counts per min"}, {"measurement": "Spleen B Cell Mitogenesis", "setting": "Spleen B Cell; [5]", "result": "1642 (158) counts per min"}, {"measurement": "Spleen B Cell Mitogenesis", "setting": "Spleen B Cell; [6]", "result": "3227 (854) counts per min"}, {"measurement": "mean number of tumor colonies observed in both lungs", "setting": "[1]; 1 μM SP aerosol 15 min/day 7 days starting immediately (next day)", "result": 39}, {"measurement": "mean number of tumor colonies observed in both lungs", "setting": "[1]; SP aerosol for one week starting one week after injection", "result": 1}, {"measurement": "reduction in tumors", "setting": "[1]; therapy starting immediately after B16 cells injection", "result": 62.9, "unit": "%"}, {"measurement": "reduction in tumors", "setting": "[1]; therapy starting one week after B16 cells injection", "result": 97.0, "unit": "%"}, {"measurement": "Spleen Cytokine Production Interferon-Gamma", "setting": "interferon-gamma; 4 weeks after LP-BM5 infection", "result": "1.5188 (0.21) nanogram/ml"}, {"measurement": "Spleen Cytokine Production Interferon-Gamma", "setting": "interferon-gamma; [7]", "result": "1.072 (0.09) nanogram/ml"}, {"measurement": "Spleen Cytokine Production Interleukin-6", "setting": "interleukin-6; 4 weeks after LP-BM5 infection", "result": "0.1334 (0.02) nanogram/ml"}, {"measurement": "Spleen Cytokine Production Interleukin-6", "setting": "interleukin-6; [7]", "result": "0.1480 (0.02) nanogram/ml"}, {"measurement": "Spleen T Cell Mitogenesis", "setting": "Spleen T Cell; [3]", "result": "2963 (56) counts per min"}, {"measurement": "Spleen T Cell Mitogenesis", "setting": "Spleen T Cell; [4]", "result": "2769 (23) counts per min"}, {"measurement": "Spleen T Cell Mitogenesis", "setting": "Spleen T Cell; [5]", "result": "4362 (69) counts per min"}, {"measurement": "Spleen T Cell Mitogenesis", "setting": "Spleen T Cell; [6]", "result": "3127 (77) counts per min"}, {"measurement": "reversal of effects of JP-8 exposure on all measured parameters", "setting": "immune system", "result": "invariably reversed the effects on all measured parameters of JP-8 exposure to almost normal levels"}]}
